Laboratory results published in patent US20250221981A1, “MAT2A INHIBITOR AND/OR TSG101 INHIBITOR FOR USE IN ANTIVIRAL THERAPY” (CAMBRIDGE ENTERPRISE LIMITED, priority 2022, published 2025).

Assays:
BKPyV [1] = test: Fluorescence focus unit (FFU) assay of infectious BKPyV from treated RPTE/TERT1 cells; assay type: cell-based, BK polyomavirus; settings: for reduction in infectious virus production: BKPyV MOI 1
Experimental: (B) Effect of PF-9366 on viral replication: Cells were infected with BKPyV (MOI 1) in media containing appropriate drug concentrations. At 1 hpi infectious media was removed, cells were washed and fresh media with appropriate drug concentrations was added. At 48 hpi cells were harvested and infectious BKPyV was measured by FFU assay. n=3.
(§1) Cells were treated with MAT2A inhibitors at 1 hr post infection and were harvested at 48 hr post infection at MOI 1. (A) Total infectious BKPyV synthesis expressed as fold change to DMSO control (FFU titre assay). (B) Total viral protein expression (LTAg and VP1) was analysed by western blot. Tubulin was used as loading control. All error bars represent SEM. Two sample paired T-test was used to determine significance (*p<0.05; **p<0.01; ***p<0.001, ****p<0.0001), all numerical data shown were obtained over 2 independent experiments.
(§2) RPTE/hTERT cells were treated with inhibitors at 1 hr post infection (PI), infected at MOI 1. (A) Viral growth curves using FFU titre assay in drug treated and untreated cells infected with BKPyV at MOI 1 for 48 hr PI, 72 hr PI and 96 hr PI. (B) Total viral protein expression (LTAg and VP1) from drug treatments and untreated control was analysed by western blot with samples harvested at 48 hr PI and 96 hr PI. Tubulin was used as loading control. All error bars represent SEM. All numerical data shown were obtained over 2 independent experiments.
The ability for PF-9366 to inhibit the production of infectious virus was then investigated. RPTE/TERT1 cells were once again treated with a concentration range of PF-9366 or DMSO as a control prior to infection, and as before, infected with BKPyV (MOI 1) then washed and media replaced at 1 hpi. At 48 hpi total virus was harvested from each condition and an FFU assay was conducted to determine BKPyV virus titre (FIG. 3B).
For BKPyV infections, RPTE/TERT1, RPTE/TERT1-Cas9 or RPTE/TERT1 MAT2A KO cells were infected with BKPyV at either a multiplicity of infection (MOI) of 5 for growth curves or an MOI of 3 or 1 for all other experiments, diluted in appropriate medium. At 1 hour post infection (hpi) medium was removed, cells were washed twice with phosphate-buffered saline (PBS), and fresh medium was added with or without inhibitors. At 24, 48, 72 or 96 hpi cells were either harvested for western blot, RT qPCR or virus titre by FFU assay, or fixed for immunofluorescence analysis.
FFU assays were used to determine the concentration of infectious BKPyV in experimental samples. RPTE/TERT1 cells were infected with sample dilutions, fixed at 48 hpi in 3% formaldehyde, and immunostained for VP1 expression as described in Evans et al. (Open Biol. 2015 August; 5 (8): 150041).
Example 1: PF-9366 (Sigma-Aldrich) and AG-270 (kindly supplied by Astra Zeneca) were diluted in 100% DMSO. Cells were drug treated at a range of concentrations in REBM supplemented with BulletKit (Lonza) for 3 hours prior to infection. Cells were infected with BK-Dunlop in media and appropriate drug dilution. At 1 hpi infectious media was removed, cells gently washed with PBS and media containing appropriate drug dilutions was added. At 48 hpi cells were either fixed in 3% formaldehyde for microscopy, or harvested by scraping up into fresh drug-free media.
TSG101 inhibitor Ilaprazole (Sigma-Aldrich) was diluted in 100% DMSO. Cells were treated at a range of inhibitor concentrations and combinations, in appropriate media for the cell type used, for either 3 hours prior to infection (HSV-1, Alphavirus and Flavivirus infections) or 1 hour post infection (BKPyV infection).

BKPyV [2] = test: Western blot of BKPyV viral protein expression (LTAg, VP1) in RPTE/TERT1 cells; assay type: cell-based, BK polyomavirus
Experimental: (C)(i) Effect of PF-9366 on viral early and late gene and cellular MAT2A expression: Cells were infected with BKPyV (MOI 3) in media containing appropriate drug concentrations. At 1 hpi infectious media was removed, cells were washed and fresh media with appropriate drug concentrations was added. Cells were harvested at 48 hpi and a western blot performed. Membranes were blotted for viral late gene VP1, LTAg, cellular MAT2A/MAT1A, and tubulin as a loading control.
(iii) Viral gene expression is modulated in response to PF-9366: The density of BKPyV VP1 and LTAg expression were measured, normalized to tubulin loading control (LiCor Image Studio Software), n=3.
as §1, §2
It has previously been noted by Quinlan et al. (Nat Chem Biol. 2017 13 (7): 785-792) that treatment with PF-9366 can increase MAT2A expression as a compensatory mechanism within cells. To investigate this, cells were once again treated with a range of PF-9366 for 3 hours prior to infection (or DMSO treated). Cells were infected with BKPyV (MOI 3), washed at 1 hpi, and fresh drug treated media was added. At 48 hpi cells were harvested and protein expression was analysed by western blotting (FIG. 3C(i)). MAT2A expression was quantified from band intensities, normalised to the tubulin loading control and plotted (FIG. 3C(ii), n=3). A clear increase in the cellular expression of MAT2A was observed, up to an 8-fold increase at 10 μM PF-9366. Western blot analysis was also conducted on early viral gene (LTAg) and late viral gene (VP1) expression (FIG. 3C(iii), n=3).
Cell lysate preparation and western blots were performed as described in Ren et al. (J Gen Virol. 2012 February; 93 (Pt 2): 319-329). Primary antibodies used were ab53977 (VP1), PAb416 (LTAg), sc-166452 (MAT2A/1A), ab110226 (VP16), sc-53070 (ICP0), anti-Zika E Protein, and either anti-GAPDH or anti-tubulin as a loading control, followed by IRDye 680LT-, or IRDye 800CW-conjugated secondary antibodies. Imaging was performed using the LI-COR Odyssey Infrared Imaging system. Quantification was performed using LI-COR Image Studio Software.

cell proliferation = settings: value used to set treatment concentration; read-out: proliferative IC50; cited from earlier work
[3] = 125 nM to 1 μM, dose dependent, MOI 1, 48 hr post infection

SMILES | inhibition of BKPyV replication (total infectious BKPyV, FFU titre) (BKPyV [1]; 125 nM, 250 nM, 500 nM and 1 μM, added 1 hr post infection, MOI 1, 48 hr post infection) | potency against BKPyV replication (BKPyV [1]; AG270 1 μM or AZ33 125 nM in conjunction with Ilaprazole (5 μM), compared with MAT2A inhibitor alone) | early viral protein (LTAg) levels (western blot) (BKPyV [2]; [3]) | late viral protein (VP1) levels (western blot) (BKPyV [2]; [3]) | IC50 (cell proliferation) | reduction in infectious virus production (BKPyV [1]; 2.5 μM (lowest concentration), 48 hpi) | reduction in viral titre for BKPyV (BKPyV [1]; 2.5 μM, MOI 1, 48 hpi) | reduction in infectious virus production (BKPyV [1]; 40 μM (maximum), 48 hpi) | VP1 expression (western blot) (BKPyV [2]; across the concentration range of PF-9366, BKPyV MOI 3, 48 hpi) | expression of LTAg (western blot) (BKPyV [2]; two highest concentrations of PF-9366, BKPyV MOI 3, 48 hpi)
COc1ccc(-c2c(Nc3ccccn3)[nH]c3c(C4=CCCCC4)c(-c4ccccc4)nn3c2=O)cc1 [AG-270] | significant dose dependent inhibition | increased potency | reduced | reduced | 0.257 µM | – | – | – | – | –
CN(C)CCc1nnc2cc(-c3ccccc3)c3cc(Cl)ccc3n12 [PF-9366] | – | – | – | – | 10 µM | 60% | 2-3 fold | ~95% | dose-dependent reduction | Reduced expression
